Where “and” joins values, the source holds several entries; their conditions need not be identical. Equal values may be shown once.
System: eIF2-GTP-Met-tRNAi ternary complex
Assay: Ternary complex assay (dual luciferase, firefly/renilla ratio) in stable KLN-tTA/pBISA-DL(ATF-4) cells; HTS and hit confirmation
Format: cell-based, mouse
Design: Activity 10 uM / Activity 2.5 uM / Activity 5 uM: unit not given here
Settings: confirmed hits of the screen (Table 5); for Activity 5 uM: compound at 5 uM; for Activity 10 uM: compound at 10 uM; for Activity 2.5 uM: compound at 2.5 uM

SMILES: Nc1cc2c(cc1-n1cccc1)oc1ccccc12 [Compound 347204]
- Activity 5 uM: 4.246
- Activity 10 uM: 6.6455

SMILES: Clc1nc2cc3c(cc2n2cccc12)oc1ccccc13 [Compound 347816]
- Activity 5 uM: 3.143
- Activity 10 uM: 3.5245

SMILES: Br.CN1CCC2(C)CC(Br)(Cc3ccccc32)C1Cl (stereo not shown) [Compound 349125]
- Activity 2.5 uM: 0.47
- Activity 10 uM: 13.75

SMILES: [Cl][Hg][Cl] [Compound 353255]
- Activity 2.5 uM: 3.3

SMILES: C/C(=N\NC(=S)Nc1nccs1)c1ccccn1 [Compound 354087]
- Activity 2.5 uM: 2.65
- Activity 10 uM: 10.14

SMILES: O=C(Nc1nc2ccsc2s1)c1ccccc1 [Compound 354215]
- Activity 2.5 uM: 3.08
- Activity 10 uM: 4.14

SMILES: c1ccc(-c2cnn3c(-c4ccccc4)cnnc23)cc1 [Compound 355167]
- Activity 2.5 uM: 3.09
- Activity 10 uM: 4.17

SMILES: [Cl][Sn]([CH2][Sn]([Cl])([c]1ccccc1)[c]1ccccc1)([c]1ccccc1)[c]1ccccc1 [Compound 356110]
- Activity 5 uM: 2.4
- Activity 10 uM: 3.9

SMILES: [Br][Sn]([Br])([CH2][Sn]([Br])([c]1ccccc1)[c]1ccccc1)[c]1ccccc1 [Compound 356111]
- Activity 5 uM: 4.4
- Activity 10 uM: 3.2

SMILES: COc1ccc2nc3cc(Cl)ccc3c(NCCC3CCCN4CCCCC34)c2c1 (stereo not shown) [Compound 359827]
- Activity 2.5 uM: 0.61
- Activity 10 uM: 6.27

SMILES: CSc1ncnc2c(C3OC(COC(C)=O)C(OC(C)=O)C3OC(C)=O)[nH]nc12 (stereo not shown) [Compound 360648]
- Activity 2.5 uM: 1.88
- Activity 10 uM: 3.85

SMILES: CC(C)(C)c1cc(C(O)(C(F)(F)F)C(F)(F)F)c(Cl)c(C(O)(C(F)(F)F)C(F)(F)F)c1 [Compound 361407]
- Activity 2.5 uM: 0.62
- Activity 10 uM: 3.7

SMILES: c1cc[c]([Ge]([O][Ge]([c]2ccccc2)[c]2ccccc2)[c]2ccccc2)cc1.c1cc[c]([Ge]([O][Ge]([c]2ccccc2)[c]2ccccc2)[c]2ccccc2)cc1 [Compound 361597]
- Activity 2.5 uM: 0.32
- Activity 10 uM: 17.56

SMILES: O=C1c2c(-c3ccccc3)ccc(-c3ccccc3)c2C2(O)OC1(O)c1c(-c3ccccc3)ccc(-c3ccccc3)c1C2=O [Compound 361889]
- Activity 2.5 uM: 0.88
- Activity 10 uM: 12.01

SMILES: COc1ccc(N=c2nc3n4c(c(Br)cc(Br)c4n2)NC(C(Br)(Br)Br)=N3)cc1 [Compound 366233]
- Activity 2.5 uM: 17.26
- Activity 10 uM: 30.55

SMILES: CC(/C=C/c1cccc(C)c1)=N\NC(N)=O [Compound 366583]
- Activity 5 uM: 2.409
- Activity 10 uM: 3.134

SMILES: COc1ccc2c(n1)Sc1nc3ccccc3nc1N2 [Compound 367416]
- Activity 5 uM: 6.047
- Activity 10 uM: 7.3545

SMILES: Br.C/C(=C\c1ccccc1)C(=O)C(CN(C)C)CN(C)C [Compound 367620]
- Activity 2.5 uM: 0.49
- Activity 10 uM: 16.04

SMILES: Cc1ccc2nc(-c3ccccc3)c(N=O)n2c1 [Compound 369061]
- Activity 5 uM: 5.137
- Activity 10 uM: 6.3

SMILES: O=C(Nc1nc2ccc(Cl)cc2[nH]1)c1ccccc1O [Compound 369110]
- Activity 2.5 uM: 1.84
- Activity 10 uM: 6.46

SMILES: CC(=Nc1ccc(Cl)cc1N)c1c(O)cc(C)oc1=O [Compound 369331]
- Activity 5 uM: 2.533
- Activity 10 uM: 2.7605

SMILES: CN(C(=[Se])[Se]C(=[Se])N(C)C1CCCCC1)C1CCCCC1 [Compound 369741]
- Activity 2.5 uM: 0.96
- Activity 10 uM: 6.34

SMILES: c1csc(-c2[nH]nc3c2CCc2ccccc2-3)c1 [Compound 370463]
- Activity 2.5 uM: 4.76
- Activity 10 uM: 5.98

SMILES: Cn1c2ccccc2c2nnc(N/N=C/c3ccccn3)nc21 [Compound 370589]
- Activity 2.5 uM: 11.87
- Activity 10 uM: 39.54

SMILES: Cc1ccc2c(O)c3c(cc2c1O)C(=O)c1ccccc1C3=O [Compound 374924]
- Activity 2.5 uM: 2.1
- Activity 10 uM: 6.35

SMILES: C/C(=N\NC(=S)N1CCN(C2CCCCCC2)CC1)c1ccccn1 [Compound 376265]
- Activity 2.5 uM: 2.72
- Activity 10 uM: 7.26

SMILES: O=C(O)Cc1ccc(O)c(O)c1.[Pt].c1ccc([PH+](c2ccccc2)c2ccccc2)cc1.c1ccc([PH+](c2ccccc2)c2ccccc2)cc1 [Compound 377376]
- Activity 2.5 uM: 0.96
- Activity 10 uM: 5.14

SMILES: CNCC(O)c1ccc(O)c(O)c1.[Pt].c1ccc([PH+](c2ccccc2)c2ccccc2)cc1.c1ccc([PH+](c2ccccc2)c2ccccc2)cc1 [Compound 377377]
- Activity 2.5 uM: 0.77
- Activity 10 uM: 34.93

SMILES: CC(C)NCC(O)c1ccc(O)c(O)c1.[Pt].c1ccc([PH+](c2ccccc2)c2ccccc2)cc1.c1ccc([PH+](c2ccccc2)c2ccccc2)cc1 [Compound 377378]
- Activity 2.5 uM: 0.87
- Activity 10 uM: 21.49

SMILES: Nc1ccccc1-c1nnc(-c2ccccc2)o1 [Compound 377831]
- Activity 2.5 uM: 2.19
- Activity 10 uM: 3.79

SMILES: COc1cc2c(cc1C[N+](C)(C)CSc1ccccc1)-c1ccccc1CC2.[Br-] [Compound 378135]
- Activity 2.5 uM: 1.75
- Activity 10 uM: 3.15

SMILES: Nc1ccccc1Nc1c([N+](=O)[O-])cc(C(F)(F)F)cc1[N+](=O)[O-] [Compound 379578]
- Activity 2.5 uM: 0.61
- Activity 10 uM: 27.15

SMILES: CC1(C)CN=C(NN=C(C=Cc2ccc(C(F)(F)F)cc2)C=Cc2ccc(C(F)(F)F)cc2)NC1 [Compound 379665]
- Activity 2.5 uM: 1.08
- Activity 10 uM: 35.03

SMILES: COC(=O)C1=C(C(=O)OC)C2(C)OC1c1ccccc12 (stereo not shown) [Compound 380207]
- Activity 2.5 uM: 0.47 and 0.3615

SMILES: c1ccc(-c2noc(-c3ccccc3)n2)cc1 [Compound 400077]
- Activity 2.5 uM: 2.04
- Activity 10 uM: 3.14

SMILES: CN(C)c1ccc(N=C2C=CC(=O)C=C2)cc1 [Compound 400538]
- Activity 2.5 uM: 0.57
- Activity 10 uM: 6.8

SMILES: Cc1cc(N=Nc2ccccc2C)c(N)cc1N [Compound 400939]
- Activity 2.5 uM: 2.36
- Activity 10 uM: 3.56

SMILES: CC1=CC(=Nc2ccc(N(C)C)cc2)C=CC1=O [Compound 401162]
- Activity 2.5 uM: 0.3784
- Activity 10 uM: 7.084

SMILES: c1ccc2c(O[Si](Oc3cccc4ccccc34)(Oc3cccc4ccccc34)Oc3cccc4ccccc34)cccc2c1 [Compound 401234]
- Activity 2.5 uM: 1
- Activity 10 uM: 24.65

SMILES: CCCCCCNc1nc(N2CCOCC2)c2[nH]c(NCCCCCC)nc2n1 [Compound 401304]
- Activity 2.5 uM: 1.04
- Activity 10 uM: 43.11

SMILES: Oc1c(Cl)cc(Cl)cc1Cc1cc(Cl)cc(Cl)c1O [Compound 402193]
- Activity 2.5 uM: 0.56
- Activity 10 uM: 3.19

SMILES: Br.CCCCCCCCCCCCNCCCc1ccccc1 [Compound 402291]
- Activity 2.5 uM: 0.73
- Activity 10 uM: 4.43

SMILES: Oc1ccc(N=Nc2ccc(Cl)cc2)cc1 [Compound 402592]
- Activity 2.5 uM: 2.25
- Activity 10 uM: 3.48

SMILES: O=C(Nc1ccccc1)c1cc(Cl)ccc1O [Compound 402600]
- Activity 2.5 uM: 1.14
- Activity 10 uM: 4.82

SMILES: O=C1C(=O)c2ccccc2-c2ccccc21.O=C1C(=O)c2ccccc2-c2ccccc21.[Hg] [Compound 402785]
- Activity 2.5 uM: 50.88

SMILES: CC(C)(C)c1ccc(C(=O)C[n+]2ccc(Cl)c3ccc(Cl)cc32)cc1.[Br-] [Compound 402826]
- Activity 2.5 uM: 0.85
- Activity 10 uM: 5.42

SMILES: Cc1ccc([As]=[As]c2ccc(C)cc2N)c(N)c1.Cl (stereo not shown) [Compound 402866]
- Activity 2.5 uM: 1.66
- Activity 10 uM: 26.02

SMILES: NS(=O)(=O)c1ccc(NC(=S)Nc2ccc(S(=O)(=O)Nc3nccs3)cc2)cc1 [Compound 403440]
- Activity 2.5 uM: 1.41
- Activity 10 uM: 3.83

SMILES: COC1OC(CI)C(OC(=O)c2ccccc2)C(OC(=O)c2ccccc2)C1OC(=O)c1ccccc1 (stereo not shown) [Compound 403488]
- Activity 2.5 uM: 1.55
- Activity 10 uM: 4.41

SMILES: CCOc1ccc2c(c1)/C(=C\C=C\C1CC(C)C3CC(OCC)CCC3N1CC)CC(C)N2CC (stereo not shown) [Compound 403534]
- Activity 2.5 uM: 7.33
- Activity 10 uM: 9.9

SMILES: Cc1ccc(NC(=O)c2ccc(Cl)cc2Cl)cc1 [Compound 405522]
- Activity 2.5 uM: 2.47
- Activity 10 uM: 3.69

SMILES: CCCCN=C(C)CC(=O)CC(=O)c1ccccc1 [Compound 406018]
- Activity 2.5 uM: 1.51
- Activity 10 uM: 4.09

SMILES: Cc1ccc(C23C=CC(c4ccccc4)(C2)C2C(=O)OC(=O)C23)cc1 (stereo not shown) [Compound 406824]
- Activity 2.5 uM: 1.76
- Activity 10 uM: 4.25

SMILES: F[B-](F)(F)F.c1ccc([P+](c2ccccc2)(c2ccccc2)c2ccccc2)cc1 [Compound 407396]
- Activity 2.5 uM: 1.72
- Activity 10 uM: 4.74

SMILES: CC(=O)Oc1cc2c(c3ccc4ccccc4c13)CCc1ccccc1-2 [Compound 407658]
- Activity 2.5 uM: 1.57
- Activity 10 uM: 5.17

SMILES: O=C1C=CC(=Nc2ccc3c(c2)Cc2cc(Br)ccc2-3)O1 [Compound 408380]
- Activity 2.5 uM: 2.28
- Activity 10 uM: 4.36

SMILES: O=C1C=CC(=O)N1c1ccc2c(c1)Cc1cc(NC(=O)C(F)(F)F)ccc1-2 [Compound 408383]
- Activity 2.5 uM: 0.84
- Activity 10 uM: 10.77

SMILES: CN(C)c1ccc(/C=C/c2nccc3ccccc23)cc1 [Compound 408399]
- Activity 2.5 uM: 1.63
- Activity 10 uM: 3.42

SMILES: Cc1cc2c(C(C)C)c(O)c(O)c(C=Nc3ccccc3[N+](=O)[O-])c2c(O)c1-c1c(C)cc2c(C(C)C)c(O)c(O)c(C=Nc3ccccc3[N+](=O)[O-])c2c1O [Compound 408711]
- Activity 2.5 uM: 1.47
- Activity 10 uM: 21.88

SMILES: Cc1cc2c(C(C)C)c(O)c(O)c(C=Nc3ccc([N+](=O)[O-])cc3)c2c(O)c1-c1c(C)cc2c(C(C)C)c(O)c(O)c(C=Nc3ccc([N+](=O)[O-])cc3)c2c1O [Compound 408712]
- Activity 2.5 uM: 1.57
- Activity 10 uM: 21.65

SMILES: Nc1ccc(O)c(-c2ccccc2)c1 [Compound 409777]
- Activity 2.5 uM: 20.85
- Activity 10 uM: 5.55

SMILES: C(=N\Nc1ccc2ccccc2n1)/c1ccccn1 [Compound 527347]
- Activity 2.5 uM: 2.551
- Activity 10 uM: 5.591

— patent US9932300B2, “N,N′-diarylurea compounds and N,N′-diarylthiourea compounds as inhibitors of translation initiation” (President and Fellows of Harvard College, priority 2009, dated 2018)
